In patent US6590140B1, “Metal-regulated transporters and uses therefor” (Trustees of Dartmouth College, priority 1996, dated 2003):

Target: T1, IRT1 (Arabidopsis thaliana, UniProt Q38856)
T1 construct: contain a single 1017 bp open reading frame capable of encoding a polypeptide of 339 amino acids; expressed in transfected cells; host or cells: S. cerevisiae fet3 fet4 strain DEY1453 carrying pIRT-1 (pFL61 library vector, phosphoglycerate kinase promoter)
T1 sequence (Q38856 9-347 limits assumed): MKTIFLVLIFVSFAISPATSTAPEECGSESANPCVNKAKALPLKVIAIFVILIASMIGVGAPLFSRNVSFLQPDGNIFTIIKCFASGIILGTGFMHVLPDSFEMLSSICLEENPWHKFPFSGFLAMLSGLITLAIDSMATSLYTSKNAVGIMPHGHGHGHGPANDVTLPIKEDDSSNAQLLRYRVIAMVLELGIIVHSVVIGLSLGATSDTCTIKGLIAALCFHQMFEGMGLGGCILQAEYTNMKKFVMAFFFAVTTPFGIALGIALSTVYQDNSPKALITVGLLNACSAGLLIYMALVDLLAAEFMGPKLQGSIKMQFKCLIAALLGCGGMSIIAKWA
Assay: 55Fe uptake in fet3 fet4 yeast expressing IRT1
Type: cell-based
Conditions: for effect on the rate of iron uptake by IRT1: 10 μM metal, 10 times the radiolabeled iron, Fe(II) with 1 mM ascorbate
Procedure: Iron uptake assays using ^55FeCl3 (Amersham, Arlington Heights, Ill.) were performed as described (Eide, D. et al. (1992) J. Biol. Chem. 267: 20774-20781) except that MGN (10 mM Mes/2% glucose/1 mM nitrilotriacetic acid, pH 6.1) was used for the assay buffer. Where noted, 1 mM sodium ascorbate was added to reduce Fe(III) to Fe(II). Stock solutions of the chloride salt of each metal (except for iron) were prepared in water at a concentration of 100 mM and diluted into MGN to a final concentration of 10 μM before addition of the cells. The ^56FeCl3 stock was 50 mM prepared in 0.1 M HCl. The statistical significance of differences in values relative to controls was determined using STATVIEW software (Abacus Concepts, Berkeley, Calif.). Data was subjected to one-way analysis of variance (ANOVA) followed by a Scheffe's test.
To determine if IRT1 encodes an iron transporter, ^55Fe uptake rates were examined in a fet3 fet4 strain expressing IRT1. Little or no uptake was detected at 0° C. for either IRT1-expressing or untransformed control cells (FIG. 2A). The fet3 fet4 mutant strain DEY1453 (circles) and DEY1453 transformed with pIRT-1 (squares) were grown to exponential phase in SD glucose and assayed for iron uptake with ^55Fe. (A) Time- and temperature-dependence of iron accumulation assayed in MGN with 1 mM ascorbate and 5 μM ^55FeCl3 assayed at 30° C. (open symbols) or 0° C. (solid symbols). The dashed line marked with open triangles represents the IRT1-dependent accumulation, i.e., the accumulation of iron by the untransformed strain at 30° C. subtracted from the accumulation of the pIRT-1-bearing strain at 30° C. […] The IRT1-dependent rate was ≈3-fold higher than the control uptake rate. No increased uptake was apparent in strains bearing either of two randomly selected clones from the library, indicating the dependence of these uptake effects on expression of IRT1. The iron uptake activity dependent on IRT1 expression was also concentration-dependent and saturable (FIG. 2B). The same strains as in A were assayed for iron uptake rates for 10 min over a range of concentrations. The dashed lines marked with open triangles represents the IRT1-dependent uptake rate, i.e., background uptake rate of the untransformed strain subtracted from the corresponding rate of the pIRT-1-bearing strains. (Inset) Eadie-Hofstee plot of the IRT1-dependent uptake data. Each point represents the mean of three experiments each performed in duplicate. The standard deviation within each experiment was less that 20% of the corresponding mean.
The experiments described above were conducted with iron supplied as Fe(II), i.e., in the presence of ascorbate, an agent capable of reducing Fe(III) to Fe(II). To determine if Fe(II) is the preferred substrate over Fe(III), assays were carried out in the absence of ascorbate where iron is supplied to the cells as Fe(III). […] The fet3 fet4 mutant strain DEY1453 and DEY1453 transformed with pIRT-1 were grown to exponential phase is SD glucose and assayed for iron uptake with 1 μM FeCl3 in MGN for 10 min. The values shown are the IRT1-dependent rates, i.e., the untransformed strain control values were subtracted from the DEY1453 pIRT-1 values and represent the means of four replicates. The asterisks indicate significant of differences from the control values (P<0.05). Assays were performed in the absence [Fe(III)] or presence [Fe(II)] of 1 mM ascorbate. […] Although yeast are capable of reducing Fe(III) to Fe(II) through the action of plasma membrane Fe(III) reductases, this rate of cell-mediated reduction is slower than reduction by ascorbate and therefore may be rate-limiting for IRT1-dependent uptake. To assess if metals other than iron are potential substrates for IRT1, several transition metals were tested for their ability to inhibit accumulation of iron in IRT1-expressing cells (FIG. 3B). Assays were conducted in the absence (−) or presence of 10 μM metal. […]

SMILES | inhibition of IRT1-mediated Fe(II) uptake in yeast (summary statement) | effect on the rate of iron uptake by IRT1 (10 min) | also measured
[Zn+2] [zinc] | inhibitors of IRT1-mediated Fe(II) uptake | no significant effect | 
[Cl-].[Cl-].[Co+2] [Co] | inhibitors of IRT1-mediated Fe(II) uptake | no significant effect | 
[Cl][Mn][Cl] [Mn] | inhibitors of IRT1-mediated Fe(II) uptake | no significant effect | 
[Cl][Cu][Cl] [Cu] |  | no significant effect | 
[Cl][Fe]([Cl])[Cl] [Fe(III)] |  |  | iron uptake rate in the absence of ascorbate relative to rate with ascorbate (1 μM FeCl3 in MGN, 10 min, iron supplied as Fe(III)): ≈ 10%
[Cl][Ni][Cl] [Ni] |  | no significant effect | 
[Fe+2] [Fe(II)] |  | potent inhibitors | IRT1-dependent uptake rate relative to control uptake rate (5 μM 55FeCl3, 1 mM ascorbate, 30° C., first 10 min): ≈ 3 fold; Vmax of IRT1-mediated iron uptake (iron supplied as Fe(II) (1 mM ascorbate), 10 min, DEY1453 pIRT-1 minus untransformed strain): 1.9±0.4 pmol per min per 10^6 cells; Km (iron supplied as Fe(II) (1 mM ascorbate), 10 min, DEY1453 pIRT-1 minus untransformed strain, read-out: apparent Km of IRT1-mediated iron uptake): 6 ± 1 µM
